# Test system: NPY Y2 receptor
# Experiment: Hyperoxia/ischemia-induced retinal neovascularization (retinopathy) in newborn rats, fluorescent dextran flat-mount vessel count
# Assay type: in vivo, rat (Sprague Dawley)
# Settings: for Retinal capillary vessel formation in fluorescein images: fluorescence microscopy of flat-mounted retinas, FIG. 3; for Quantitated neovascularization (amount of retinal vessels crossed by a constant length line), Mean ± SD / Quantitated neovascularization, Range: newborn rats, intraperitoneal treatment, retinas at age of 20 days; for Quantitated neovascularization (amount of retinal vessels crossed by a constant length line), Mean ± SD: cyclic hyperoxia 40%/80%; for Quantitated neovascularization, Range: cyclic hyperoxia; for Development of retinopathy: treated groups of rat puppies
# Text: The present study was undertaken to determine the impact of NPY Y2 receptor targeted intervention on neovascularization and development of retinopathy. Development of retinopathy was induced to newborn rats by cyclic hyperoxia and following relative ischemia-induced retinal neovascularization. Hyperoxemia is toxic to developing retinal vessels causing damage and hypoxia in the retina. After moving to normal air, relative hypoxia follows further promoting neovascularization of the retina.
# Three groups of rat puppies were subjected for different treatments; 1) vehicle, 2) NPY Y2 receptor targeted antisense oligonucleotide sequence, and 3) scramble oligonucleotide sequence containing the same oligonucleotides as NPY Y2 receptor targeted antisense oligonucleotide sequence. The treatments were administered intraperitoneally. The retinal vessels were investigated and retinopathic changes were compared between treatment groups.
# Retinopathy was assessed after injection of fluorescent-labelled dextran to the circulation. The eyes were flat-mounted on slides and the retinal vessels were visualized and investigated by fluorescence microscopy. Statistical differences were calculated between the study groups.
# Study protocol was approved by the Joint Ethics Committee of Turku University. Development of retinopathy was induced to newborn rats (Sprague Dawley) by cyclic hyperoxia and following relative ischemia. Hyperoxia is toxic to developing retinal vessels causing damage and hypoxia in the retina, which induces neovascularization. After moving to normal air, relative hypoxia follows further promoting neovascularization of the retina. Hypoxia is one of the major causes of retinal neovascularization in human retinopathies also. The newborn rats were kept in a hyperoxic incubator with their mothers. Retinal neovascularization was induced simultaneously for all three groups of puppies. One treatment group consisted originally of 7 puppies, which underwent cyclic hyperoxia at the age of 3 days, continued until at the age of 14 days and remained in normal room air from the age of 14 to 17 days. The amount of oxygen inside the incubator was kept at 40% and 80% in 12 hour cycles for 10 days (days from 3 to 13).
# The three groups of puppies were subjected for different treatments; 1) plain vehicle, 2) NPY Y2 receptor targeted antisense oligodeoxynucleotide sequence (5′-CCTCTGCACCTAATGGGCCC-3′ (SEQ ID NO:4), containing 20 thioate modified bases) diluted in vehicle and 3) scramble oligodeoxynucleotide sequence containing the same deoxynucleotides as NPY Y2 receptor targeted antisense oligodeoxynucleotide sequence but in a random order (5′-CCATGGTAATCCGCCGCTCC-3′ (SEQ ID NO:5), containing 20 thioate modified bases) diluted in vehicle. The treatments were administered intraperitoneally. The retinal vessels were investigated and retinopathic changes were compared between treatment groups. The used NPY Y2 receptor targeted antisense deoxynucleotide sequence was designed complementary to next 20 bases from NPY Y2 gene transcription initiation codon (ATG).
# At the age of 20 days, rats were decapitated and eyes were collected. Retinopathy and retinal neovascularization was assessed after an injection of fluorescent-labelled dextran to the circulation trough heart puncture. One eye from each puppy was used for visualization of retinal vessels. The eyes were flat-mounted on slides and the retinal vessels were visualized and investigated by fluorescence microscopy. Pictures of retinas were acquired using a Leica DMR/DC 100 microscope and Leica DC Wiever software.
# The amount of retinal capillaries was analyzed by counting the amount of vessels crossed by a constant length line using plot profile analysis (Image-J 2.6 program). Each retina was analyzed in 3-5 representative areas and the mean values were used for further statistical analysis. Only unfolded retinal preparations were used in order to avoid artificial images of neovascularization. […]
# [1] = post hoc analysis, less neovascularization
Substance,Retinal capillary vessel formation in fluorescein images,"Quantitated neovascularization (amount of retinal vessels crossed by a constant length line), Mean ± SD","Quantitated neovascularization, Range",Difference in retinal neovascularization versus vehicle treatment group (post hoc analysis),Development of retinopathy,95% confidence interval for the difference compared to scramble treatment group (post hoc analysis),95% confidence interval for the difference compared to vehicle treatment group (post hoc analysis),Mean difference in neovascularization compared to scramble treatment group [1],Mean difference in neovascularization compared to vehicle treatment group [1]
"5′-CCATGGTAATCCGCCGCTCC-3′ (CCATGGTAATCCGCCGCTCC; DNA, all phosphorothioate, methylation of C not given here) [Scramble, reference compound]",irregular and disrupted,31.12 ± 0.93,30.33-32.25,no difference,evident,–,–,–,–
"5′-CCTCTGCACCTAATGGGCCC-3′ (antisense CCTCTGCACCTAATGGGCCC; DNA, all phosphorothioate, methylation of C not given here) [Y2-antisense, NPY Y2 receptor targeted antisense oligodeoxynucleotide, complementary to rat NPY Y2 mRNA, next 20 bases from initiation codon]",regular and continuous,24.58 ± 0.84,23.75-25.75,–,prevented,3.76-9.31,2.48-8.33,6.53,5.40

# Reference: US20040006004A1, “Method for prevention and treatment of diseases or disorders related to excessive formation of vascular tissue or blood vessels” (priority 2002, published 2004)
